From patent US10130590B2, “Methods of treating cancer with atovaquone-related compounds” (DANA-FARBER CANCER INSTITUTE, INC., priority 2013, dated 2018)

What was measured:
Type in all cases: cell-based
INA-6 cells = test: Cell viability (Cell Titer Glo), INA-6; settings: 72 hours
Experimental: Western blotting was performed as previously described (Battle T E, Arbiser J, & Frank D A (2005) The natural product honokiol induces caspase dependent apoptosis in B-cell chronic lymphocytic leukemia (B-CLL) cells. Blood 106(2):690-697). Antibodies to phospho-MAPK (9101), total MAPK (9102), phospho-Y705 STAT3 (9131), phospho-S6 (2215), total S6 (2217), phospho-4E-BP1 (9451), total 4E-BP1 (9644), total RSK (9355), phospho-S6K (9234, 85 used at 1:5000), total S6K (2708), phospho-eIF2α (9721, used at 1:1000), total eIF2α (5324), ATF4 (11815, used at 1:1000), PDGFRβ (3169), IGF1Rβ (9750), EGFR (2232), and HER2 (2242) were from Cell Signaling Technology. Phospho-RSK antibody was from R&D (AF889). Antibodies to total STAT3 (sc-482) and gp130 (sc-656, used at 1:1000) were from Santa Cruz Biotechnology. Phospho-S727 STAT3 antibody was described previously (229). REDD1 antibody was from Proteintech (10638-1-AP, used at 1:1000). Antibody recognizing full-length and cleaved ATF6 was from Abcam (ab122897, used at 1:1000). Antibodies to tubulin (T5168) and beta actin (A5316) were from Sigma. All antibodies were used at 1:10000 dilution for western blot unless otherwise noted. […] Cell viability was measured as ATP-dependent luminescence by Cell Titer Glo (Promega). […]

[1] = tested on: unfolded protein response (UPR); test: Other UPR branches: XBP1 splicing, ATF6 cleavage, UPR target genes
Experimental: Total RNA was reverse transcribed using random hexamers and assayed by qRT-PCR as previously described (see, Grivennikov S I, Greten F R, & Karin M (2010) Immunity, inflammation, and cancer. Cell 140(6):883-899).
In asking how atovaquone induces REDD1, a possible role for ATF4, which regulates REDD1 expression was considered. ATF4 is regulated mainly at the level of translation and is induced upon phosphorylation of eIF2α. […] K562 and AML2 cells, which lack STAT3 activation, were treated with rapamycin for 72 hours. […] For these reasons, it was hypothesized that atovaquone induces eIF2α phosphorylation, with a resulting increase in ATF4 protein and signaling. U266, K562, and SKBR3 cells were treated with atovaquone (20, 20, 25 μM respectively). […] The phospho-eIF2α/ATF4 pathway represents one branch of the UPR, whose other branches consist of ATF6 cleavage and IRE1-mediated XBP1 splicing. […] Thus, atovaquone selectively activates the phospho-eIF2α/ATF4 branch of the UPR. […] Consequently, atovaquone inhibition of STAT3 is not secondary to UPR activation.

gp130 = test: Western blot of total gp130
Experimental: Western blotting was performed as previously described (Battle T E, Arbiser J, & Frank D A (2005) The natural product honokiol induces caspase dependent apoptosis in B-cell chronic lymphocytic leukemia (B-CLL) cells. Blood 106(2):690-697). Antibodies to phospho-MAPK (9101), total MAPK (9102), phospho-Y705 STAT3 (9131), phospho-S6 (2215), total S6 (2217), phospho-4E-BP1 (9451), total 4E-BP1 (9644), total RSK (9355), phospho-S6K (9234, 85 used at 1:5000), total S6K (2708), phospho-eIF2α (9721, used at 1:1000), total eIF2α (5324), ATF4 (11815, used at 1:1000), PDGFRβ (3169), IGF1Rβ (9750), EGFR (2232), and HER2 (2242) were from Cell Signaling Technology. Phospho-RSK antibody was from R&D (AF889). Antibodies to total STAT3 (sc-482) and gp130 (sc-656, used at 1:1000) were from Santa Cruz Biotechnology. […] Cell viability was measured as ATP-dependent luminescence by Cell Titer Glo (Promega).
Since atovaquone reduced gp130 expression at the cell surface, it was asked whether this effect was accompanied by reduced total gp130 in the cell. To address this question, a time course of atovaquone treatment was performed and total cellular gp130 was measured by Western blotting in U266 cells treated with atovaquone at 20 μM. […]
MEF, MDA-MB-468, and SKBR3 cells were treated with atovaquone (25 μM) for 6 or 12 hours, then analyzed by Western blot for expression of gp130 and various other receptors. […]

O=C1C(O)=C([C@H]2CC[C@H](c3ccc(Cl)cc3)CC2)C(=O)c2ccccc21 [atovaquone, trans-2-[4-(4-chlorophenyl)cyclohexyl]-3-hydroxy-1,4-naphthalenedione]
viability of INA-6 cells at higher doses (INA-6 cells): complete loss of viability | IC50 (INA-6 cells; INA-6): 11.9 µM | levels of BiP [1]: no effect on levels of BiP | ATF6 cleavage ([1]; SKBR3, K562, U266, 25, 20, 20 μM): did not induce | spliced XBP1 ([1]; U266, K562, SKBR3, 20, 20, 25 μM, 6 hours): did not induce spliced XBP1 | UPR target gene expression ([1]; U266, K562, SKBR3, 6 hours, in contrast to tunicamycin and thapsigargin): did not induce any UPR target genes other than those downstream of ATF4 | total gp130 in other cell lines (gp130; MEF, SKBR3, MDA-MB-468, 25 μM, 6 or 12 hours): induced loss of total gp130 after prolonged treatment | total cellular gp130, time course (gp130; U266, 20 μM): not reduced except at much longer time points
